Test results taken from PubChem BioAssay AID2060890 (Molecular Pharmacology Branch, DTP, NCI, 2025).
Values joined by “and” are separate entries in the source; they are usually repeats but may differ in a detail not shown here. Identical values can stand only once. One block for each molecule: values may come before it.

Tested on: LG0703-F948-PDC complex spheroid viability
Test: Anticancer human tumor LG0703-F948-PDC patient-derived lung adenocarcinoma cell line growth inhibition [RAS]
Conditions: for viability, T/C: stronger effect = lower value
Summary of the method: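 Agents were tested in combination matrices in half-log decrements from a top concentration at or near clinical Cmax (10 microM if undetermined). Targets were multi-cell spheroids of tumour lines plus HUVEC and MSC stromal cells.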

[1] = curve of first compound, second compound 0.0316 µM
[2] = curve of first compound, second compound 0.1 µM
[3] = curve of first compound, second compound 0.316 µM
[4] = curve of first compound, second compound 1 µM
[5] = curve of first compound, second compound 3.16 µM
[6] = curve of first compound, second compound 10 µM
[7] = second compound 0.0316 µM, first compound 0.0316 µM
[8] = second compound 0.0316 µM, first compound 0.1 µM
[9] = second compound 0.0316 µM, first compound 0.316 µM
[10] = second compound 0.0316 µM, first compound 1 µM
[11] = second compound 0.0316 µM, first compound 3.16 µM
[12] = second compound 0.0316 µM, first compound 10 µM
[13] = second compound 0.1 µM, first compound 0.0316 µM
[14] = second compound 0.1 µM, first compound 0.1 µM
[15] = second compound 0.1 µM, first compound 0.316 µM
[16] = second compound 0.1 µM, first compound 1 µM
[17] = second compound 0.1 µM, first compound 3.16 µM
[18] = second compound 0.1 µM, first compound 10 µM
[19] = second compound 0.316 µM, first compound 0.0316 µM
[20] = second compound 0.316 µM, first compound 0.1 µM
[21] = second compound 0.316 µM, first compound 0.316 µM
[22] = second compound 0.316 µM, first compound 1 µM
[23] = second compound 0.316 µM, first compound 3.16 µM
[24] = second compound 0.316 µM, first compound 10 µM
[25] = second compound 1 µM, first compound 0.0316 µM
[26] = second compound 1 µM, first compound 0.1 µM
[27] = second compound 1 µM, first compound 0.316 µM
[28] = second compound 1 µM, first compound 1 µM
[29] = second compound 1 µM, first compound 3.16 µM
[30] = second compound 1 µM, first compound 10 µM
[31] = second compound 3.16 µM, first compound 0.0316 µM
[32] = second compound 3.16 µM, first compound 0.1 µM
[33] = second compound 3.16 µM, first compound 0.316 µM
[34] = second compound 3.16 µM, first compound 1 µM
[35] = second compound 3.16 µM, first compound 3.16 µM
[36] = second compound 3.16 µM, first compound 10 µM
[37] = second compound 10 µM, first compound 0.0316 µM
[38] = second compound 10 µM, first compound 0.1 µM
[39] = second compound 10 µM, first compound 0.316 µM
[40] = second compound 10 µM, first compound 1 µM
[41] = second compound 10 µM, first compound 3.16 µM
[42] = second compound 10 µM, first compound 10 µM
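Note: spheroids exposed to agents for 7 days.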
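Throughout, for viability, T/C: 100% = DMSO vehicle wells.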

Compound: C[C@@H](NC(=O)c1ncnc(N)c1Cl)c1ncc(C(=O)Nc2cc(C(F)(F)F)c(Cl)cn2)s1
- viability, T/C (compound 0.0316 µM): 102% and 115% and 92.8%
- viability, T/C (compound 0.1 µM): 120% [middle of 4 runs]
- viability, T/C (compound 0.316 µM): 103% [middle of 4 runs]
- viability, T/C (compound 1 µM): 114% [middle of 4 runs]
- viability, T/C (compound 3.16 µM): 102% [middle of 4 runs]
- IC50 (curve of compound): > 10 µM

Compound: Cc1nc(N2CCC3(CC2)COC(C)C3N)c(CO)nc1Sc1ccnc(N)c1Cl (stereo not drawn) + CCn1c(-c2cc(N3CCN(C)CC3)cnc2C(C)OC)c2c3cc(ccc31)-c1csc(n1)CC(NC(=O)C1CC1C)C(=O)N1CCCC(N1)C(=O)OCC(C)(C)C2
- IC50 (curve of first compound, second compound 0.000949 µM): 0.093 µM
- IC50 (curve of first compound, second compound 0.003 µM): < 0.0316 µM
- IC50 (curve of first compound, second compound 0.00949 µM): < 0.0316 µM
- IC50 (curve of first compound, second compound 0.03 µM): < 0.0316 µM
- IC50 (curve of first compound, second compound 0.0949 µM): < 0.0316 µM
- IC50 (curve of first compound, second compound 0.3 µM): < 0.0316 µM
- viability, T/C (second compound 0.000949 µM, first compound 0.0316 µM): 68%
- viability, T/C (second compound 0.000949 µM, first compound 0.1 µM): 48%
- viability, T/C (second compound 0.000949 µM, first compound 0.316 µM): 32.7%
- viability, T/C (second compound 0.000949 µM, first compound 1 µM): 18.2%
- viability, T/C (second compound 0.000949 µM, first compound 3.16 µM): 11.3%
- viability, T/C (second compound 0.000949 µM, first compound 10 µM): 8.65%
- viability, T/C (second compound 0.003 µM, first compound 0.0316 µM): 32.3%
- viability, T/C (second compound 0.003 µM, first compound 0.1 µM): 23.9%
- viability, T/C (second compound 0.003 µM, first compound 0.316 µM): 21.1%
- viability, T/C (second compound 0.003 µM, first compound 1 µM): 14.9%
- viability, T/C (second compound 0.003 µM, first compound 3.16 µM): 6.78%
- viability, T/C (second compound 0.003 µM, first compound 10 µM): 5.16%
- viability, T/C (second compound 0.00949 µM, first compound 0.0316 µM): 26%
- viability, T/C (second compound 0.00949 µM, first compound 0.1 µM): 15.7%
- viability, T/C (second compound 0.00949 µM, first compound 0.316 µM): 10.6%
- viability, T/C (second compound 0.00949 µM, first compound 1 µM): 10.2%
- viability, T/C (second compound 0.00949 µM, first compound 3.16 µM): 6.57%
- viability, T/C (second compound 0.00949 µM, first compound 10 µM): 7.31%
- viability, T/C (second compound 0.03 µM, first compound 0.0316 µM): 13.2%
- viability, T/C (second compound 0.03 µM, first compound 0.1 µM): 11.6%
- viability, T/C (second compound 0.03 µM, first compound 0.316 µM): 8.59%
- viability, T/C (second compound 0.03 µM, first compound 1 µM): 4.72%
- viability, T/C (second compound 0.03 µM, first compound 3.16 µM): 7.7%
- viability, T/C (second compound 0.03 µM, first compound 10 µM): 5.42%
- viability, T/C (second compound 0.0949 µM, first compound 0.0316 µM): 10.1%
- viability, T/C (second compound 0.0949 µM, first compound 0.1 µM): 7.94%
- viability, T/C (second compound 0.0949 µM, first compound 0.316 µM): 6.73%
- viability, T/C (second compound 0.0949 µM, first compound 1 µM): 6.62%
- viability, T/C (second compound 0.0949 µM, first compound 3.16 µM): 6.38%
- viability, T/C (second compound 0.0949 µM, first compound 10 µM): 3.71%
- viability, T/C (second compound 0.3 µM, first compound 0.0316 µM): 7.15%
- viability, T/C (second compound 0.3 µM, first compound 0.1 µM): 6.24%
- viability, T/C (second compound 0.3 µM, first compound 0.316 µM): 5.96%
- viability, T/C (second compound 0.3 µM, first compound 1 µM): 3.97%
- viability, T/C (second compound 0.3 µM, first compound 3.16 µM): 3.82%
- viability, T/C (second compound 0.3 µM, first compound 10 µM): 4.35%

Now from value to molecule, other results behind:

- IC50 [1]: 1.61 µM
- IC50 [2]: 1.52 µM
- IC50 [3]: 0.903 µM
- IC50 [4]: 0.381 µM
- IC50 [5]: 0.062 µM
- IC50 [6]: < 0.0316 µM
Compound: CC(Nc1ccc2c(c1)OCCn1cc(N3C(=O)OCC3C(F)F)nc1-2)C(N)=O (stereo not drawn) + C#Cc1c(F)ccc2cc(O)cc(-c3ncc4c(N5CC6CCC(C5)N6)nc(OCC56CCCN5CC(F)C6)nc4c3F)c12
- viability, T/C [7]: 96%
- viability, T/C [8]: 88.5%
- viability, T/C [9]: 76.3%
- viability, T/C [10]: 56.4%
- viability, T/C [11]: 39.9%
- viability, T/C [12]: 21.6%
- viability, T/C [13]: 80.7%
- viability, T/C [14]: 81%
- viability, T/C [15]: 66.5%
- viability, T/C [16]: 56.3%
- viability, T/C [17]: 39.7%
- viability, T/C [18]: 19.5%
- viability, T/C [19]: 78.1%
- viability, T/C [20]: 71%
- viability, T/C [21]: 59.9%
- viability, T/C [22]: 50.8%
- viability, T/C [23]: 32%
- viability, T/C [24]: 12.5%
- viability, T/C [25]: 77.7%
- viability, T/C [26]: 71.2%
- viability, T/C [27]: 52.7%
- viability, T/C [28]: 32.2%
- viability, T/C [29]: 17.6%
- viability, T/C [30]: 9.15%
- viability, T/C [31]: 54.1%
- viability, T/C [32]: 47.5%
- viability, T/C [33]: 34%
- viability, T/C [34]: 18.7%
- viability, T/C [35]: 12.7%
- viability, T/C [36]: 4.54%
- viability, T/C [37]: 48.1%
- viability, T/C [38]: 31%
- viability, T/C [39]: 15.2%
- viability, T/C [40]: 7.38%
- viability, T/C [41]: 4.96%
- viability, T/C [42]: 2.4%

- IC50 (curve of compound): 946 nM [middle of 4 runs]
Compound: CC(C)NCC(C(=O)N1CCN(c2ncnc3c2C(C)CC3O)CC1)c1ccc(Cl)cc1 (stereo not drawn)
- viability, T/C (compound 0.1 µM): 90.6% [middle of 4 runs]
- viability, T/C (compound 0.316 µM): 70.8% [middle of 4 runs]
- viability, T/C (compound 1 µM): 48% [middle of 4 runs]
- viability, T/C (compound 3.16 µM): 40.3% [middle of 4 runs]
- viability, T/C (compound 10 µM): 32.6% [middle of 4 runs]

- IC50 [1]: < 0.0316 µM
- IC50 [2]: < 0.0316 µM
- IC50 [3]: < 0.0316 µM
- IC50 [4]: < 0.0316 µM
- IC50 [5]: < 0.0316 µM
- IC50 [6]: < 0.0316 µM
Compound: CC(=O)OC12COC1CC(O)C1(C)C(=O)C(O)C3=C(C)C(OC(=O)C(O)C(NC(=O)OC(C)(C)C)c4ccccc4)CC(O)(C(OC(=O)c4ccccc4)C21)C3(C)C (stereo not drawn) + C#Cc1c(F)ccc2cc(O)cc(-c3ncc4c(N5CC6CCC(C5)N6)nc(OCC56CCCN5CC(F)C6)nc4c3F)c12
- viability, T/C [7]: 28.1%
- viability, T/C [8]: 22.9%
- viability, T/C [9]: 23.7%
- viability, T/C [10]: 27.4%
- viability, T/C [11]: 33.1%
- viability, T/C [12]: 27.8%
- viability, T/C [13]: 23.5%
- viability, T/C [14]: 27.3%
- viability, T/C [15]: 24.9%
- viability, T/C [16]: 32%
- viability, T/C [17]: 32.9%
- viability, T/C [18]: 25.2%
- viability, T/C [19]: 27.2%
- viability, T/C [20]: 22.6%
- viability, T/C [21]: 27.7%
- viability, T/C [22]: 26.2%
- viability, T/C [23]: 24.8%
- viability, T/C [24]: 22.9%
- viability, T/C [25]: 25.5%
- viability, T/C [26]: 26.4%
- viability, T/C [27]: 24.6%
- viability, T/C [28]: 26.4%
- viability, T/C [29]: 22.7%
- viability, T/C [30]: 20.1%
- viability, T/C [31]: 23.5%
- viability, T/C [32]: 22.8%
- viability, T/C [33]: 23%
- viability, T/C [34]: 18.9%
- viability, T/C [35]: 16.3%
- viability, T/C [36]: 16.1%
- viability, T/C [37]: 17.2%
- viability, T/C [38]: 18.5%
- viability, T/C [39]: 16%
- viability, T/C [40]: 11.8%
- viability, T/C [41]: 8.84%
- viability, T/C [42]: 5.54%
